Experimental findings from PubChem BioAssay AID1259407 (Chemical Carcinogenesis Research Information System (CCRIS), 2018) are described below.

Calls of active or inactive are those of the source. The rule behind the calls is not given here.

This data set has as its system CCRIS mutagenicity, Ames/micronucleus/aberration tests. Kind of data set: CCRIS mutagenicity studies.
Where [1] appears, read: Test System: AMES SALMONELLA TYPHIMURIUM, Strain/Indicator: TA98, Metabolic Activation: NONE, Method: PREINCUBATION
Setting [2] is: Test System: AMES SALMONELLA TYPHIMURIUM, Strain/Indicator: TA100, Metabolic Activation: NONE, Method: PREINCUBATION
Where [3] appears, read: Test System: AMES SALMONELLA TYPHIMURIUM, Strain/Indicator: TA100, Metabolic Activation: NONE, Method: STANDARD PLATE.
Where [4] appears, read: Test System: AMES SALMONELLA TYPHIMURIUM, Strain/Indicator: TA98, Metabolic Activation: NONE, Method: STANDARD PLATE.

Take `O=C1NC(=O)c2cc([N+](=O)[O-])ccc21`: the mutagenic call is “inactive; negative” (Test System: AMES SALMONELLA TYPHIMURIUM, Strain/Indicator: TA97, Metabolic Activation: HAMSTER, LIVER, S-9, AROCLOR 1254 (10%), Method: PREINCUBATION); “active; positive” (Test System: AMES SALMONELLA TYPHIMURIUM, Strain/Indicator: TA97, Metabolic Activation: NONE, Method: PREINCUBATION); “inactive; negative” (Test System: AMES SALMONELLA TYPHIMURIUM, Strain/Indicator: TA97, Metabolic Activation: RAT, LIVER, S-9, AROCLOR 1254 (10%), Method: PREINCUBATION); “active; positive” (Test System: AMES SALMONELLA TYPHIMURIUM, Strain/Indicator: TA98, Metabolic Activation: HAMSTER, LIVER, S-9, AROCLOR 1254 (10%), Method: PREINCUBATION); “active; positive” under setting [1]; “active; positive” (Test System: AMES SALMONELLA TYPHIMURIUM, Strain/Indicator: TA98, Metabolic Activation: RAT, LIVER, S-9, AROCLOR 1254 (10%), Method: PREINCUBATION). Also, the mutagenic call (Test System: AMES SALMONELLA TYPHIMURIUM, Strain/Indicator: TA100, Metabolic Activation: HAMSTER, LIVER, S-9, AROCLOR 1254 (10%), Method: PREINCUBATION) is “inactive; negative”; the mutagenic call under setting [2] was “inactive; negative”; the mutagenic call (Test System: AMES SALMONELLA TYPHIMURIUM, Strain/Indicator: TA100, Metabolic Activation: RAT, LIVER, S-9, AROCLOR 1254 (10%), Method: PREINCUBATION) is “inactive; negative”; the mutagenic call (Test System: AMES SALMONELLA TYPHIMURIUM, Strain/Indicator: TA1535, Metabolic Activation: HAMSTER, LIVER, S-9, AROCLOR 1254 (10%), Method: PREINCUBATION) is “inactive; negative”; the mutagenic call (Test System: AMES SALMONELLA TYPHIMURIUM, Strain/Indicator: TA1535, Metabolic Activation: NONE, Method: PREINCUBATION) was “inactive; negative”; the mutagenic call (Test System: AMES SALMONELLA TYPHIMURIUM, Strain/Indicator: TA1535, Metabolic Activation: RAT, LIVER, S-9, AROCLOR 1254 (10%), Method: PREINCUBATION) was “inactive; negative”. Further, the mutagenic call is, setting by setting: (Test System: AMES SALMONELLA TYPHIMURIUM, Strain/Indicator: TA1537, Metabolic Activation: HAMSTER, LIVER, S-9, AROCLOR 1254 (10%), Method: PREINCUBATION) “active; positive”; (Test System: AMES SALMONELLA TYPHIMURIUM, Strain/Indicator: TA1537, Metabolic Activation: NONE, Method: PREINCUBATION) “active; positive”; (Test System: AMES SALMONELLA TYPHIMURIUM, Strain/Indicator: TA1537, Metabolic Activation: RAT, LIVER, S-9, AROCLOR 1254 (10%), Method: PREINCUBATION) “active; positive”.

For `COc1nsc2c([N+](=O)[O-])cccc12`, the mutagenic call under setting [3] is “active; positive”.

With `CC1(C2CO2)CO1` (centres undefined), the mutagenic call was “active; positive” under setting [4] and “active; positive” under setting [3].

Take `O[C@H]1[C@@H]2O[C@@H]2c2c(ccc3cc4c(ccc5ccccc54)nc23)[C@@H]1O`: the mutagenic call runs as follows: under setting [1], “active; positive”; (Test System: AMES SALMONELLA TYPHIMURIUM, Strain/Indicator: TA98, Metabolic Activation: RAT, LIVER, AROCLOR 1254, NADPH GENERATING SYSTEM, Method: STANDARD PLATE) “active; positive”; under setting [2], “active; positive”; (Test System: AMES SALMONELLA TYPHIMURIUM, Strain/Indicator: TA100, Metabolic Activation: RAT, LIVER, AROCLOR 1254, NADPH GENERATING SYSTEM, Method: STANDARD PLATE) “active; positive”; (Test System: CHINESE HAMSTER V-79, Strain/Indicator: V-79/8-AZAGUANINE, Metabolic Activation: NONE) “active; positive”; (Test System: CHINESE HAMSTER V-79, Strain/Indicator: V-79/8-AZAGUANINE, Method: STANDARD PLATE) “active; positive”.

In the case of `CSc1ccc(Cl)cc1`, the mutagenic call was “inactive; negative” under setting [4]; “inactive; negative” (Test System: AMES SALMONELLA TYPHIMURIUM, Strain/Indicator: TA98, Metabolic Activation: RAT, LIVER, S-9, AROCLOR 1254, Method: STANDARD PLATE); “inactive; negative” under setting [3]; “inactive; negative” (Test System: AMES SALMONELLA TYPHIMURIUM, Strain/Indicator: TA100, Metabolic Activation: RAT, LIVER, S-9, AROCLOR 1254, Method: STANDARD PLATE); “inactive; negative” (Test System: AMES SALMONELLA TYPHIMURIUM, Strain/Indicator: TA1535, Metabolic Activation: NONE, Method: STANDARD PLATE); “inactive; negative” (Test System: AMES SALMONELLA TYPHIMURIUM, Strain/Indicator: TA1535, Metabolic Activation: RAT, LIVER, S-9, AROCLOR 1254, Method: STANDARD PLATE). Besides, the mutagenic call is “inactive; negative” (Test System: AMES SALMONELLA TYPHIMURIUM, Strain/Indicator: TA1537, Metabolic Activation: NONE, Method: STANDARD PLATE); “inactive; negative” (Test System: AMES SALMONELLA TYPHIMURIUM, Strain/Indicator: TA1537, Metabolic Activation: RAT, LIVER, S-9, AROCLOR 1254, Method: STANDARD PLATE); “inactive; negative” (Test System: AMES SALMONELLA TYPHIMURIUM, Strain/Indicator: TA1538, Metabolic Activation: NONE, Method: STANDARD PLATE); “inactive; negative” (Test System: AMES SALMONELLA TYPHIMURIUM, Strain/Indicator: TA1538, Metabolic Activation: RAT, LIVER, S-9, AROCLOR 1254, Method: STANDARD PLATE).
